# According to paper PMC10066365, “Nemacol is a small molecule inhibitor of C. elegans vesicular acetylcholine transporter with anthelmintic potential” (Nature Communications, 2023):
# “And” between values parts separate entries of the source, which are not always exact repeats. Equal values may be shown once.
# Key:
# C. elegans = C. elegans motor phenotype scoring on solid media (Punc/jerky-unc, coiled, paralyzed), wild-type young adults; format: in vivo, Caenorhabditis elegans; conditions: for atypical locomotion (number of animals) / coiled (number of animals) / no phene (number of animals) / paralyzed (number of animals) / any phene: mean % fraction of young adults exhibiting any phenotype (coiled, jerky-Unc or paralyzed) / any phene, mean % fraction of young adults exhibiting any phenotype (coiled, jerky-Unc or paralyzed): one hour; for atypical locomotion (number of animals) / coiled (number of animals) / no phene (number of animals) / paralyzed (number of animals): young adults, 20 animals per trial; for any phene: mean % fraction of young adults exhibiting any phenotype (coiled, jerky-Unc or paralyzed) / any phene, mean % fraction of young adults exhibiting any phenotype (coiled, jerky-Unc or paralyzed): mean of three biological replicates; for EC50: Caenorhabditis elegans, any motor phenotype after 1 h on solid media, ± 95% CI, read-out: C. elegans - motor disruption EC50
# [1] = test system: Dirofilaria immitis microfilariae; assay: Dirofilaria immitis microfilariae immobility assay (DiroImager, 72 h); conditions: Dirofilaria immitis microfilariae
# Method in brief: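 About 250 freshly purified microfilariae of the Missouri isolate per well in supplemented RPMI 1640, exposed to compound for 72 h. Motility scored by automated whole-plate optical imaging; medium with 1% DMSO as negative control.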
# [2] = test system: Dirofilaria immitis L3/L4; assay: Dirofilaria immitis L3/L4 motility assay (DiroImager, 72 h); conditions: Dirofilaria immitis L4
# Pristionchus pacificus = Pristionchus pacificus motor disruption dose-response on solid media, 1 h; conditions: for EC50: Pristionchus pacificus, 1 h, read-out: P. pacificus motor disruption EC50; for mean % any phene: any phenotype (coiled, jerky-Unc or paralyzed) at one hour; for mean % any phene / mean % any phene (coiled, jerky-Unc or paralyzed): mean of three biological replicates; for rep 1 atypical locomotion / rep 1 coiled / rep 1 no phene / rep 1 paralyzed / rep 2 atypical locomotion / rep 2 coiled / rep 2 no phene / rep 2 paralyzed / rep 3 atypical locomotion / rep 3 coiled / rep 3 no phene / rep 3 paralyzed: count of 20 animals per trial, one hour; for mean % any phene (coiled, jerky-Unc or paralyzed): Pristionchus pacificus young adults
# [3] = 3.75uM, single technical replicate
# [4] = 15uM, single technical replicate
# [5] = 60uM, single technical replicate
# [6] = 3.75uM, single replicate counts
structure (smiles),measurement,setting,value
c1ccc(N2CCN(C3CCCCCCC3)CC2)cc1 [Nemacol-54],atypical locomotion (number of animals),C. elegans; [3],7 and 14 and 6 and 3 and 12 and 10
same,coiled (number of animals),C. elegans; [3],0
same,no phene (number of animals),C. elegans; [3],11 and 4 and 14 and 17 and 8 and 10
same,paralyzed (number of animals),C. elegans; [3],2 and 0
same,"any phene: mean % fraction of young adults exhibiting any phenotype (coiled, jerky-Unc or paralyzed)",C. elegans; 3.75uM,46.6667%
same,atypical locomotion (number of animals),C. elegans; [4],8 and 13 and 15 and 18 and 17
same,coiled (number of animals),C. elegans; [4],2 and 1 and 0
same,no phene (number of animals),C. elegans; [4],0 and 5 and 3
same,paralyzed (number of animals),C. elegans; [4],10 and 6 and 0 and 1
same,"any phene: mean % fraction of young adults exhibiting any phenotype (coiled, jerky-Unc or paralyzed)",C. elegans; 15uM,93.3333%
same,atypical locomotion (number of animals),C. elegans; [5],2 and 4 and 6 and 5 and 3
same,coiled (number of animals),C. elegans; [5],8 and 7 and 5 and 4 and 9
same,no phene (number of animals),C. elegans; [5],0
same,paralyzed (number of animals),C. elegans; [5],10 and 9 and 8 and 11
same,EC50,C. elegans,4 ± 1.1 µM
same,"% effect (motility), DIROIM MF",[1]; 0.016 µM,0%
same,"% effect (motility), DIROIM MF",[1]; 0.08 µM,0%
same,"% effect (motility), DIROIM MF",[1]; 0.4 µM,0%
same,"% effect (motility), DIROIM MF",[1]; 2 µM,0%
same,"% effect (motility), DIROIM MF",[1]; 10 µM,0%
same,"% effect (motility), DIROIM L4",[2]; 10 µM,0%
same,"% effect (motility), DIROIM L4",[2]; 50 µM,25%
same,EC50,Pristionchus pacificus,52.4 µM
same,mean % any phene,Pristionchus pacificus; conc 3.75,0%
same,rep 1 atypical locomotion,Pristionchus pacificus; conc 3.75,0
same,rep 1 coiled,Pristionchus pacificus; conc 3.75,0
same,rep 1 no phene,Pristionchus pacificus; conc 3.75,20
same,rep 1 paralyzed,Pristionchus pacificus; conc 3.75,0
same,rep 2 atypical locomotion,Pristionchus pacificus; conc 3.75,0
same,rep 2 coiled,Pristionchus pacificus; conc 3.75,0
same,rep 2 no phene,Pristionchus pacificus; conc 3.75,20
same,rep 2 paralyzed,Pristionchus pacificus; conc 3.75,0
same,rep 3 atypical locomotion,Pristionchus pacificus; conc 3.75,0
same,rep 3 coiled,Pristionchus pacificus; conc 3.75,0
same,rep 3 no phene,Pristionchus pacificus; conc 3.75,20
same,rep 3 paralyzed,Pristionchus pacificus; conc 3.75,0
same,mean % any phene,Pristionchus pacificus; conc 15,0%
same,rep 1 atypical locomotion,Pristionchus pacificus; conc 15,0
same,rep 1 coiled,Pristionchus pacificus; conc 15,0
same,rep 1 no phene,Pristionchus pacificus; conc 15,20
same,rep 1 paralyzed,Pristionchus pacificus; conc 15,0
same,rep 2 atypical locomotion,Pristionchus pacificus; conc 15,0
same,rep 2 coiled,Pristionchus pacificus; conc 15,0
same,rep 2 no phene,Pristionchus pacificus; conc 15,20
same,rep 2 paralyzed,Pristionchus pacificus; conc 15,0
same,rep 3 atypical locomotion,Pristionchus pacificus; conc 15,0
same,rep 3 coiled,Pristionchus pacificus; conc 15,0
same,rep 3 no phene,Pristionchus pacificus; conc 15,20
same,rep 3 paralyzed,Pristionchus pacificus; conc 15,0
same,mean % any phene,Pristionchus pacificus; conc 60,92.5%
same,rep 1 atypical locomotion,Pristionchus pacificus; conc 60,6 and 10
same,rep 1 coiled,Pristionchus pacificus; conc 60,5 and 4
same,rep 1 no phene,Pristionchus pacificus; conc 60,5 and 4
same,rep 1 paralyzed,Pristionchus pacificus; conc 60,4 and 2
same,rep 2 atypical locomotion,Pristionchus pacificus; conc 60,12 and 10
same,rep 2 coiled,Pristionchus pacificus; conc 60,5 and 7
same,rep 2 no phene,Pristionchus pacificus; conc 60,0
same,rep 2 paralyzed,Pristionchus pacificus; conc 60,3
same,rep 3 atypical locomotion,Pristionchus pacificus; conc 60,9 and 10
same,rep 3 coiled,Pristionchus pacificus; conc 60,8 and 7
same,rep 3 no phene,Pristionchus pacificus; conc 60,0
same,rep 3 paralyzed,Pristionchus pacificus; conc 60,3
O=[N+]([O-])c1cccc(CN2CCN(C3CCCCC3)CC2)c1 [Nemacol-14],"any phene, mean % fraction of young adults exhibiting any phenotype (coiled, jerky-Unc or paralyzed)",C. elegans; 3.75uM,0.8333%
same,atypical locomotion (number of animals),C. elegans; [6],0
same,coiled (number of animals),C. elegans; [6],0
same,no phene (number of animals),C. elegans; [6],20 and 19
same,paralyzed (number of animals),C. elegans; [6],0 and 1
same,"any phene, mean % fraction of young adults exhibiting any phenotype (coiled, jerky-Unc or paralyzed)",C. elegans; 15uM,0%
same,atypical locomotion (number of animals),"C. elegans; 15uM, single replicate counts",0
same,coiled (number of animals),"C. elegans; 15uM, single replicate counts",0
same,no phene (number of animals),"C. elegans; 15uM, single replicate counts",20
same,paralyzed (number of animals),"C. elegans; 15uM, single replicate counts",0
same,"any phene, mean % fraction of young adults exhibiting any phenotype (coiled, jerky-Unc or paralyzed)",C. elegans; 60uM,6.667%
same,atypical locomotion (number of animals),"C. elegans; 60uM, single replicate counts",0 and 2
same,coiled (number of animals),"C. elegans; 60uM, single replicate counts",0 and 2
same,no phene (number of animals),"C. elegans; 60uM, single replicate counts",20 and 18 and 16
same,paralyzed (number of animals),"C. elegans; 60uM, single replicate counts",0
same,EC50,C. elegans,> 60 µM
same,"% effect (motility), DIROIM MF",[1]; 0.016 µM,0%
same,"% effect (motility), DIROIM MF",[1]; 0.08 µM,0%
same,"% effect (motility), DIROIM MF",[1]; 0.4 µM,0%
same,"% effect (motility), DIROIM MF",[1]; 2 µM,0%
same,"% effect (motility), DIROIM MF",[1]; 10 µM,0%
same,"% effect (motility), DIROIM L4",[2]; 2 µM,0%
same,"% effect (motility), DIROIM L4",[2]; 10 µM,5%
same,"% effect (motility), DIROIM L4",[2]; 50 µM,5%
same,"mean % any phene (coiled, jerky-Unc or paralyzed)","Pristionchus pacificus; conc 3.75, observed at one hour",0%
same,"mean % any phene (coiled, jerky-Unc or paralyzed)","Pristionchus pacificus; conc 15, observed at one hour",0.8333%
same,"mean % any phene (coiled, jerky-Unc or paralyzed)","Pristionchus pacificus; conc 60, observed at one hour",12.5%
same,EC50,Pristionchus pacificus,> 60 µM
c1cc(N2CCN(CC3CCC3)CC2)ccn1 [Nemacol-60],atypical locomotion (number of animals),C. elegans; [3],0 and 2 and 3
same,coiled (number of animals),C. elegans; [3],0
same,no phene (number of animals),C. elegans; [3],20 and 18 and 17
same,paralyzed (number of animals),C. elegans; [3],0
same,"any phene: mean % fraction of young adults exhibiting any phenotype (coiled, jerky-Unc or paralyzed)",C. elegans; 3.75uM,4.167%
same,atypical locomotion (number of animals),C. elegans; [4],0 and 10 and 15
same,coiled (number of animals),C. elegans; [4],0
same,no phene (number of animals),C. elegans; [4],20 and 9 and 5
same,paralyzed (number of animals),C. elegans; [4],0 and 1
same,"any phene: mean % fraction of young adults exhibiting any phenotype (coiled, jerky-Unc or paralyzed)",C. elegans; 15uM,21.6667%
same,atypical locomotion (number of animals),C. elegans; [5],0 and 2 and 4 and 16 and 14
same,coiled (number of animals),C. elegans; [5],0
same,no phene (number of animals),C. elegans; [5],20 and 18 and 16 and 4 and 6
same,paralyzed (number of animals),C. elegans; [5],0
same,"any phene: mean % fraction of young adults exhibiting any phenotype (coiled, jerky-Unc or paralyzed)",C. elegans; 60uM,30%
same,EC50,C. elegans,> 60 µM
same,"% effect (motility), DIROIM MF",[1]; 0.016 µM,0%
same,"% effect (motility), DIROIM MF",[1]; 0.08 µM,0%
same,"% effect (motility), DIROIM MF",[1]; 0.4 µM,0%
same,"% effect (motility), DIROIM MF",[1]; 2 µM,0%
same,"% effect (motility), DIROIM MF",[1]; 10 µM,0%
same,"% effect (motility), DIROIM L4",[2]; 10 µM,0%
same,"% effect (motility), DIROIM L4",[2]; 50 µM,10%
same,mean % any phene,Pristionchus pacificus; conc 3.75,0%
same,rep 1 atypical locomotion,Pristionchus pacificus; conc 3.75,0
same,rep 1 coiled,Pristionchus pacificus; conc 3.75,0
same,rep 1 no phene,Pristionchus pacificus; conc 3.75,20
same,rep 1 paralyzed,Pristionchus pacificus; conc 3.75,0
same,rep 2 atypical locomotion,Pristionchus pacificus; conc 3.75,0
same,rep 2 coiled,Pristionchus pacificus; conc 3.75,0
same,rep 2 no phene,Pristionchus pacificus; conc 3.75,20
same,rep 2 paralyzed,Pristionchus pacificus; conc 3.75,0
same,rep 3 atypical locomotion,Pristionchus pacificus; conc 3.75,0
same,rep 3 coiled,Pristionchus pacificus; conc 3.75,0
same,rep 3 no phene,Pristionchus pacificus; conc 3.75,20
same,rep 3 paralyzed,Pristionchus pacificus; conc 3.75,0
same,mean % any phene,Pristionchus pacificus; conc 15,0%
same,rep 1 atypical locomotion,Pristionchus pacificus; conc 15,0
same,rep 1 coiled,Pristionchus pacificus; conc 15,0
same,rep 1 no phene,Pristionchus pacificus; conc 15,20
same,rep 1 paralyzed,Pristionchus pacificus; conc 15,0
same,rep 2 atypical locomotion,Pristionchus pacificus; conc 15,0
same,rep 2 coiled,Pristionchus pacificus; conc 15,0
same,rep 2 no phene,Pristionchus pacificus; conc 15,20
same,rep 2 paralyzed,Pristionchus pacificus; conc 15,0
same,rep 3 atypical locomotion,Pristionchus pacificus; conc 15,0
same,rep 3 coiled,Pristionchus pacificus; conc 15,0
same,rep 3 no phene,Pristionchus pacificus; conc 15,20
same,rep 3 paralyzed,Pristionchus pacificus; conc 15,0
same,mean % any phene,Pristionchus pacificus; conc 60,0%
same,rep 1 atypical locomotion,Pristionchus pacificus; conc 60,0
same,rep 1 coiled,Pristionchus pacificus; conc 60,0
same,rep 1 no phene,Pristionchus pacificus; conc 60,20
same,rep 1 paralyzed,Pristionchus pacificus; conc 60,0
same,rep 2 atypical locomotion,Pristionchus pacificus; conc 60,0
same,rep 2 coiled,Pristionchus pacificus; conc 60,0
same,rep 2 no phene,Pristionchus pacificus; conc 60,20
same,rep 2 paralyzed,Pristionchus pacificus; conc 60,0
same,rep 3 atypical locomotion,Pristionchus pacificus; conc 60,0
same,rep 3 coiled,Pristionchus pacificus; conc 60,0
same,rep 3 no phene,Pristionchus pacificus; conc 60,20
same,rep 3 paralyzed,Pristionchus pacificus; conc 60,0
